Test results reported in PMC5469451, “Identification of compounds that suppress Toxoplasma gondii tachyzoites and bradyzoites” (PLoS ONE, 2017).
Read-outs that look alike come from different tables or passages of the source. Where a SMILES comes first, the peptide text is derived from it. The star is where a group is joined. Boc = CC(C)(C)OC(=O)*

Columns and labels:
[1] = tested on: PLK/DLUC_1C9 tachyzoites in Vero cells; experiment: Primary screening: T. gondii growth assay, Renilla luciferase; type: cell-based, Toxoplasma gondii; settings: 48 h; for inhibition at 10 µM: Toxoplasma gondii, read-out: Parasite Inhibition (%)
Experimental: In the primary screening, purified PLK/DLULC_1C9 tachyzoites were incubated with Vero cells at a multiplicity of infection (MOI) of 0.5. After a 2-h incubation, the infected host cells were trypsinized to obtain a cell suspension and then these suspended infected cells were inoculated into 96-well optical bottom plates containing the compound library. Each well was inoculated with 2500 cells in 25 μL of culture medium. […] Following cell inoculation, each well therefore contained 0.5% DMSO and 10 μM compound. After 48 h of culture, Renilla luciferase activity was measured by using Renilla-Glo (Promega, WI, USA) following the manufacturer’s instructions. […] The Z’-value for each plate was calculated from the Renilla luciferase activity in the negative and positive control wells.

[2] = Host cell cytotoxicity assay (Cell-Titer Glo), Vero cells; type: cell-based; settings: African green monkey
Experimental: (§1) Host cells were treated with compounds at the same concentration used for screening (i.e., 0.5% DMSO and 10 μM compound). Vero cells and HFF cells were both used as host cells because both cell types were used for the parasite screening. After incubation for 48 h in DMEM supplemented with 5% FBS, L-glutamine, penicillin, and streptomycin, cell viabilities were measured by using a Cell-Titer Glo kit (Promega) following the manufacturer’s instructions. Control wells were treated with DMSO alone in culture medium to calculate the 100% viability for each cell type.

[3] = tested on: RH-2F tachyzoites (type I strain) in HFF cells; experiment: Confirmatory screening: RH-2F β-galactosidase growth assay in HFF cells; type: cell-based, Toxoplasma gondii; settings: 48 h; for inhibition at 2.5 µM / inhibition at 25 µM: Toxoplasma gondii, read-out: Parasite inhibition (%)
Experimental: In the confirmatory screening, we utilize an RH strain β-galactosidase reporter parasite termed RH-2F (a type I strain). Briefly, RH-2F parasites were purified from freshly lysed infected host cells and used to infect confluent HFF cells cultured in 96-well plates. Five hundred parasites were added to each well, along with each test compound and 50 μL of culture medium. Plates were then incubated for 10 min at room temperature followed by an incubation at 37°C for 48 h in a CO2 incubator.
To measure the effects of tanshinone IIA and hydroxyzine on intracellular parasite growth, parasites were allowed to invade for 2 h, uninvaded parasites were washed away, and medium with compounds was added. After 48 h, the plates were frozen at -80°C. Plates were then thawed just prior to the measurement of beta-galactosidase activity. Beta-Glo (Promega) was used to measure β-galactosidase activity following the manufacturer’s instructions.

[4] = Host cell cytotoxicity assay (Cell-Titer Glo), HFF cells; type: cell-based, human; settings: human
Experimental: as §1, with “Vero” for “Host cells were treated with compounds at the same concentration used for screening (i.e., 0.5% DMSO and 10 μM compound). Vero”

[5] = 10 μM, PLK/DLUC_1C9 in Vero cells, DMSO = 0%, 10 μM pyrimethamine = 100%
[6] = 2.5 μM, RH-2F in HFF, compared with 10 μM pyrimethamine
[7] = 25 μM, RH-2F in HFF, compared with 10 μM pyrimethamine
[8] = 10 μM, 48 h, Vero cells, DMSO = 100%, read-out: Host Viability (%)
[9] = HFF, 2.5 μM, RH-2F in HFF, compared with 10 μM pyrimethamine
[10] = HFF, 25 μM, RH-2F in HFF, compared with 10 μM pyrimethamine

Work on `COc1ccc(C(=O)/C(Cc2cc(OC)c(OC)c(OC)c2)=C(\C(=O)O)c2ccc3c(c2)OCO3)cc1` [(2Z)-2-(1,3-Benzodioxol-5-yl)-4-(4-methoxyphenyl)-4-oxo-3-(3,4,5-trimethoxybenzyl)-2-butenoic acid] yielded an inhibition at 10 µM [1, 5] of 93% and a viability at 48 h, 10 µM [2] of 85%.
In the case of `CC(C)C[C@H]1C(=O)N2CCC[C@H]2[C@]2(O)O[C@](NC(=O)[C@@H]3C=C4c5cccc6[nH]c(Br)c(c56)C[C@H]4N(C)C3)(C(C)C)C(=O)N12` [Bromocriptine], the inhibition at 2.5 µM [3, 6] is reported as -8%, the inhibition at 25 µM [3, 7] is reported as 110% and the viability at 48 h, 2.5 µM ([4]; HFF cells, 2.5 μM, 48 h, HFF cells, read-out: Host cell viability (%)) is reported as 98%. For the same compound, the viability at 48 h, 25 µM ([4]; HFF cells, 25 μM, 48 h, HFF cells, compared with DMSO, read-out: Host cell viability (%)) was 93%, the inhibition at 10 µM [1, 5] was 105% and the viability at 48 h, 10 µM [2, 8] was 85%.
For `O=C(/C=C/c1ccc(O)c(O)c1)c1ccc(O)cc1O` [Butein], the inhibition at 2.5 µM [3, 9] was -11%, the inhibition at 25 µM [3, 10] was 110% and the viability at 48 h, 2.5 µM ([4]; Host cell viability (%)) was 102%. It also gave a viability at 48 h, 25 µM ([4]; Host cell viability (%)) of 91%, an inhibition at 10 µM [1, 5] of 96% and a viability at 48 h, 10 µM [2] of 93%.
`Clc1ccccc1C(c1ccccc1)(c1ccccc1)n1ccnc1` [Clotrimazol] gave an inhibition at 10 µM [1, 5] of 99% and a viability at 48 h, 10 µM [2] of 94%.
`O=c1[nH]c2ccccc2n1CCCN1CCC(n2c(=O)[nH]c3cc(Cl)ccc32)CC1` [Domperidone] gave an inhibition at 2.5 µM [3, 9] of -7.2%, an inhibition at 25 µM ([3]; HFF) of 77% and a viability at 48 h, 2.5 µM ([4]; Host cell viability (%)) of 94%. The viability at 48 h, 25 µM ([4]; Host cell viability (%)) was 83%, the inhibition at 10 µM ([1]; Vero) was 93% and the viability at 48 h, 10 µM [2] was 94%.
`Nc1ccccc1NC(=O)c1ccc(CNC(=O)OCc2cccnc2)cc1` [Entinostat] gave an inhibition at 2.5 µM [3, 9] of -20%, an inhibition at 25 µM [3, 10] of 60% and a viability at 48 h, 2.5 µM ([4]; Host cell viability (%)) of 92%. It also gave a viability at 48 h, 25 µM ([4]; Host cell viability (%)) of 91%, an inhibition at 10 µM [1, 5] of 91% and a viability at 48 h, 10 µM [2] of 83%.
With `OCCN1CCN(CCCN2c3ccccc3Sc3ccc(C(F)(F)F)cc32)CC1` [FLUPHENAZINE] the viability at 48 h, 2.5 µM ([4]; Host cell viability (%)) was 104%, the viability at 48 h, 25 µM ([4]; Host cell viability (%)) was 84% and the viability at 48 h, 10 µM [2] was 83%.
`CCN(CC)CCNc1ccc(CO)c2sc3ccccc3c(=O)c12` [Hycanthone] showed an inhibition at 10 µM [1, 5] of 97% and a viability at 48 h, 10 µM [2] of 82%.
Compound `Clc1ccc(C(Cn2ccnc2)OCc2c(Cl)cccc2Cl)c(Cl)c1` (stereo not drawn) [Isoconazole] has an inhibition at 10 µM [1, 5] of 104% and a viability at 10 µM [2, 8] of 101%.
Work on `OC(c1cc(C(F)(F)F)nc2c(C(F)(F)F)cccc12)C1CCCCN1` (stereo not drawn) [Mefloquine] yielded an inhibition at 2.5 µM [3, 6] of 6.5%, an inhibition at 25 µM [3, 7] of 113% and a viability at 48 h, 2.5 µM ([4]; Host cell viability (%)) of 94%. It also gave a viability at 48 h, 25 µM ([4]; Host cell viability (%)) of 48%, an inhibition at 10 µM [1, 5] of 101% and a viability at 48 h, 10 µM [2] of 87%.
Work on `COc1ccc(S(=O)(=O)N(CC(=O)NO)CC(C)C)cc1` [N-Hydroxy-N2-isobutyl-N2-[(4-methoxyphenyl)sulfonyl]glycinamide] yielded an inhibition at 10 µM ([1]; Vero) of 101% and a viability at 10 µM [2, 8] of 98%.
`CC(C)[C@H](NC(=O)CNC(=O)OC(C)(C)C)C(=O)N[C@H](C=O)C(C)C` [N-{[(2-Methyl-2-propanyl)oxy]carbonyl}glycyl-N-[(2S)-3-methyl-1-oxo-2-butanyl]-L-valinamide] (Boc-Gly-Val-Val-aldehyde) showed an inhibition at 10 µM [1, 5] of 105% and a viability at 48 h, 10 µM [2] of 106%.
Compound `COC(=O)C1=C(C)NC(C)=C(C(=O)OCCCN2CCC(c3ccccc3)(c3ccccc3)CC2)[C@H]1c1cccc([N+](=O)[O-])c1` [Niguldipine] has an inhibition at 2.5 µM ([3]; HFF) of -19%, an inhibition at 25 µM ([3]; HFF) of 96% and a viability at 2.5 µM [4] of 99%. For the same compound, the viability at 25 µM [4] was 84%, the inhibition at 10 µM ([1]; Vero) was 103% and the viability at 10 µM [2] was 77%.
With `COc1ccc2[nH]c([S+]([O-])Cc3ncc(C)c(OC)c3C)nc2c1` (stereo not drawn) [Omeprazole] the inhibition at 2.5 µM ([3]; HFF) was 4.3%, the inhibition at 25 µM ([3]; HFF) was 44% and the viability at 48 h, 2.5 µM ([4]; Host cell viability (%)) was 100%. For the same compound, the viability at 48 h, 25 µM ([4]; Host cell viability (%)) was 100%, the inhibition at 10 µM ([1]; Vero) was 92% and the viability at 48 h, 10 µM [2] was 97%.
Work on `O=C1[C@H]2CCCC[C@H]2C(=O)N1CCCCN1CCN(c2nsc3ccccc23)CC1` [Perospirone] yielded an inhibition at 2.5 µM [3, 9] of 4.5%, an inhibition at 25 µM [3, 10] of 59% and a viability at 48 h, 2.5 µM ([4]; Host cell viability (%)) of 102%. For the same compound, the viability at 48 h, 25 µM ([4]; Host cell viability (%)) was 101%, the inhibition at 10 µM [1, 5] was 100% and the viability at 48 h, 10 µM [2] was 96%.
With PENITREM A the “Parasite inhibition (%)” value [3, 6] was 6.0%, the “Parasite inhibition (%)” value [3, 7] was 110% and the “Parasite inhibition (%)” value [1, 5] was 105%.
